Values of other authors as cited in patent US8809393B2, “Injectable preparations of diclofenac and its pharmaceutically acceptable salts” (Troikaa Pharmaceuticals Ltd, priority 2005, dated 2014).

System: erythrocytes
Details: aqueous solution of 2% propylene glycol iso-osmotic with serum, in 45 min

In the case of `CC(O)CO` (stereo not shown) [propylene glycol], the haemolysis of erythrocytes is given as 100%.
